# Assay results reported in ChEMBL document CHEMBL5331122, “Structure-Activity Relationship Study of Antimicrobial Peptide PE2 Delivered Novel Linear Derivatives with Potential of Eradicating Biofilms and Low Incidence of Drug Resistance” (J Med Chem, 2023).
# Activity calls are given as the source filed them. No cut-off for these calls is given here.
# Tests used:
# Pseudomonas aeruginosa = experiment: Antibacterial activity against Pseudomonas aeruginosa ATCC 27853 assessed as bacterial growth inhibition incubated for 18 hrs by broth microdilution method; type: functional
# Bacillus subtilis = experiment: Antibacterial activity against Bacillus subtilis ATCC 23857 assessed as bacterial growth inhibition incubated for 18 hrs by broth microdilution method; type: functional
# Enterococcus faecalis = experiment: Antibacterial activity against Enterococcus faecalis ATCC 29212 assessed as bacterial growth inhibition incubated for 18 hrs by broth microdilution method; type: functional
# Escherichia coli [1] = experiment: Antibacterial activity against Escherichia coli ATCC 25922 assessed as fold increase in MIC in presence of KCl; type: functional
# Escherichia coli [2] = experiment: Antibacterial activity against Escherichia coli ATCC 25922 assessed as fold increase in MIC in presence of MgCl2; type: functional
# Escherichia coli [3] = experiment: Antibacterial activity against Escherichia coli ATCC 25922 assessed as fold increase in MIC in presence of ZnCl2; type: functional
# Escherichia coli [4] = experiment: Antibacterial activity against Escherichia coli ATCC 25922 assessed as fold increase in MIC in presence of FeCl3; type: functional
# Staphylococcus aureus [5] = experiment: Antibacterial activity against Staphylococcus aureus ATCC 25923 assessed as fold increase in MIC in presence of NaCl; type: functional
# Staphylococcus aureus [6] = experiment: Antibacterial activity against Staphylococcus aureus ATCC 25923 assessed as fold increase in MIC in presence of MgCl2; type: functional
# Staphylococcus aureus [7] = experiment: Antibacterial activity against Staphylococcus aureus ATCC 25923 assessed as fold increase in MIC in presence of FeCl3; type: functional
# Escherichia coli [8] = experiment: Antibacterial activity against Escherichia coli ATCC 25922 in presence of 10% mouse serum measured for 6 hrs; type: functional, organism-based
# Staphylococcus aureus [9] = experiment: Antibacterial activity against Staphylococcus aureus ATCC 25923 in presence of 10% mouse serum measured for 6 hrs; type: functional, organism-based
# Escherichia coli [10] = experiment: Antimicrobial activity against Escherichia coli ATCC 25922 assessed as reduction in survival bacterial growth in presence of trypsin measured after 6 hrs; type: functional, organism-based
# Escherichia coli [11] = experiment: Antimicrobial activity against Escherichia coli ATCC 25922 assessed as reduction in survival bacterial growth in presence of chymotrypsin measured after 6 hrs; type: functional, organism-based
# Escherichia coli [12] = experiment: Inhibition of biofilm formation in Escherichia coli ATCC 25922 assessed as inhibition of biofilm formation incubated for 24 hrs by crystal violet staining based analysis; type: functional, organism-based
# Escherichia coli [13] = experiment: Inhibition of biofilm formation in Escherichia coli ATCC 25922 assessed as inhibition of biofilm formation at 1/4 times MIC incubated for 24 hrs by crystal violet staining based analysis; type: functional, organism-based
# Escherichia coli [14] = experiment: Inhibition of biofilm formation in Escherichia coli ATCC 25922 assessed as inhibition of biofilm formation at 1/2 times MIC incubated for 24 hrs by crystal violet staining based analysis; type: functional, organism-based
# Staphylococcus aureus [15] = experiment: Inhibition of biofilm formation in Staphylococcus aureus ATCC 25923 assessed as inhibition of biofilm formation at 1/4 times MIC incubated for 24 hrs by crystal violet staining based analysis; type: functional, organism-based
# Staphylococcus aureus [16] = experiment: Inhibition of biofilm formation in Staphylococcus aureus ATCC 25923 assessed as inhibition of biofilm formation at 1 times MIC incubated for 24 hrs by crystal violet staining based analysis; type: functional, organism-based
# Staphylococcus aureus [17] = experiment: Inhibition of biofilm formation in Staphylococcus aureus ATCC 25923 assessed as inhibition of biofilm formation at 2 times MIC incubated for 24 hrs by crystal violet staining based analysis; type: functional, organism-based
# Escherichia coli [18] = experiment: Antibiofilm activity against Escherichia coli ATCC 25922 assessed as biofilm eradication at 1 times MIC incubated for 24 hrs; type: functional, organism-based
# Escherichia coli [19] = experiment: Antibiofilm activity against Escherichia coli ATCC 25922 assessed as biofilm eradication at 2 times MIC incubated for 24 hrs; type: functional, organism-based
# Escherichia coli [20] = experiment: Antibiofilm activity against Escherichia coli ATCC 25922 assessed as biofilm eradication at 4 times MIC incubated for 24 hrs; type: functional, organism-based
# Staphylococcus aureus [21] = experiment: Antibiofilm activity against Staphylococcus aureus ATCC 25923 assessed as biofilm eradication at 2 times MIC incubated for 24 hrs; type: functional, organism-based
# Staphylococcus aureus [22] = experiment: Antibiofilm activity against Staphylococcus aureus ATCC 25923 assessed as biofilm eradication at 4 times MIC incubated for 24 hrs; type: functional, organism-based
# Staphylococcus aureus [23] = experiment: Antibiofilm activity against Staphylococcus aureus ATCC 25923 assessed as biofilm eradication at 8 times MIC incubated for 24 hrs; type: functional, organism-based
# Escherichia coli [24] = experiment: Induction of drug resistance against Escherichia coli ATCC 25922 assessed as fold increase in MIC measured upto 15 passages by sequential passaging method; type: functional
# Staphylococcus aureus [25] = experiment: Induction of drug resistance against Staphylococcus aureus ATCC 25923 measured upto 15 passages by sequential passaging method; type: functional
# Escherichia coli [26] = experiment: Bactericidal activity against Escherichia coli ATCC 25922 assessed as inhibition of bacterial growth incubated upto 360 mins by time-kill assay; type: functional, organism-based
# Escherichia coli [27] = experiment: Bactericidal activity against Escherichia coli ATCC 25922 assessed as inhibition of bacterial growth at 2 times MIC measured upto 360 mins by time-kill assay; type: functional, organism-based
# Staphylococcus aureus [28] = experiment: Bactericidal activity against Staphylococcus aureus ATCC 25923 assessed as inhibition of bacterial growth at 0.5 to 2 times MIC by time-kill assay; type: functional, organism-based; conditions: time <= 360.0 min, TDE = time-dependent effect
# Staphylococcus aureus [29] = experiment: Bactericidal activity against Staphylococcus aureus ATCC 25923 assessed as inhibition of bacterial growth incubated upto 360 mins by time-kill assay; type: functional, organism-based
# Staphylococcus aureus [30] = experiment: Bactericidal activity against Staphylococcus aureus ATCC 25923 assessed as inhibition of bacterial growth at 1/2 times MIC measured upto 360 mins by time-kill assay; type: functional, organism-based
# Staphylococcus aureus [31] = experiment: Bactericidal activity against Staphylococcus aureus ATCC 25923 assessed as inhibition of bacterial growth at 1 times MIC measured upto 360 mins by time-kill assay; type: functional, organism-based
# Escherichia coli [32] = experiment: Antimicrobial activity against Escherichia coli ATCC 25922 assessed as reduction in microbial growth measured for 18 hrs in presence of 512 microg/ml LPS; type: functional, organism-based
# Cell membrane [33] = experiment: Induction of outer membrane permeabilization in Escherichia coli ATCC 25922 assessed as increase in fluorescence intensity at 1 to 4 times MIC measured for 12 hrs by NPN uptake assay; type: subcellular
# Cell membrane [34] = experiment: Induction of outer membrane permeabilization in Escherichia coli ATCC 25922 assessed as increase in fluorescence intensity at 2 times MIC measured for 12 hrs by NPN uptake assay; type: subcellular
# Cell membrane [35] = experiment: Induction of outer membrane permeabilization in Escherichia coli ATCC 25922 assessed as increase in fluorescence intensity at 4 times MIC measured for 12 hrs by NPN uptake assay; type: subcellular
# Cell membrane [36] = experiment: Induction of cell membrane damage in Staphylococcus aureus ATCC 25923 at 2 times MIC after 0.5 to 2 hrs by propidium iodide staining based flow cytometer assay; type: subcellular; conditions: time 0.5-2 hrs
# Cell membrane [37] = experiment: Induction of cell membrane damage in Staphylococcus aureus ATCC 25923 at 2 times MIC measured at 30 mins by propidium iodide staining based flow cytometer assay; type: subcellular
# Staphylococcus aureus [38] = experiment: Induction of membrane morphological changes in Staphylococcus aureus ATCC 25923 at 4 times MIC measured at 0.5 to 2 hrs by SEM analysis; type: functional, organism-based; conditions: time 0.5-2 hrs
# Staphylococcus aureus [39] = experiment: Induction of membrane morphological changes in Staphylococcus aureus ATCC 25923 assessed as appearance of broken bacterial cells at 4 times MIC measured at 0.5 to 2 hrs by SEM analysis; type: functional, organism-based; conditions: time 0.5-2 hrs
structure (smiles),measurement,setting,value
CCCCCCC(=O)N[C@@H](CCN)C(=O)N[C@H](C(=O)N[C@@H](CCN)C(=O)N[C@H](Cc1ccccc1)C(=O)N[C@@H](CC(C)C)C(=O)N[C@@H](CCN)C(=O)N[C@@H](C(=O)N[C@@H](CC(C)C)C(=O)N[C@@H](Cc1ccc(O)cc1)C(N)=O)C(C)C)[C@@H](C)CC,MIC,Pseudomonas aeruginosa,4 mg/L
same,MIC,Bacillus subtilis,2 mg/L
same,MIC,Enterococcus faecalis,64 mg/L
same,fold change (FC),Escherichia coli [1],<=2
same,fold change (FC),Escherichia coli [2],<=2
same,fold change (FC),Escherichia coli [3],<=2
same,fold change (FC),Escherichia coli [4],<=2
same,fold change (FC),Staphylococcus aureus [5],<=2
same,fold change (FC),Staphylococcus aureus [6],<=2
same,fold change (FC),Staphylococcus aureus [7],<=2
same,Activity,Escherichia coli [8],Active
same,Activity,Staphylococcus aureus [9],Active
same,Activity,Escherichia coli [10],Active
same,Activity,Escherichia coli [11],Active
same,inhibition,Escherichia coli [12],Dose-Dependent Effect
same,inhibition,Escherichia coli [13],Active
same,inhibition,Escherichia coli [14],Active
same,inhibition,Staphylococcus aureus [15],Active
same,inhibition,Staphylococcus aureus [16],inactive
same,inhibition,Staphylococcus aureus [17],Active
same,Activity,Escherichia coli [18],inactive
same,Activity,Escherichia coli [19],Active
same,Activity,Escherichia coli [20],Active
same,Activity,Staphylococcus aureus [21],Active
same,Activity,Staphylococcus aureus [22],Active
same,Activity,Staphylococcus aureus [23],Active
same,fold change (FC),Escherichia coli [24],64
same,Activity,Staphylococcus aureus [25],Active
same,Activity,Escherichia coli [26],Dose-Dependent Effect
same,Activity,Escherichia coli [27],Active
same,Activity,Staphylococcus aureus [28],Tde
same,Activity,Staphylococcus aureus [29],Dose-Dependent Effect
same,Activity,Staphylococcus aureus [30],inactive
same,Activity,Staphylococcus aureus [31],inactive
same,Activity,Escherichia coli [32],inactive
same,Activity,Cell membrane [33],Active
same,Activity,Cell membrane [34],Active
same,Activity,Cell membrane [35],Active
same,Activity,Cell membrane [36],Active
same,Activity,Cell membrane [37],inactive
same,Activity,Staphylococcus aureus [38],Active
same,Activity,Staphylococcus aureus [39],Active
CC[C@H](C)[C@@H]1NC(=O)[C@H](CCN)NC(=O)C[C@@H](C(C)C)OC(=O)[C@H]([C@@H](C)O)NC(=O)[C@H](CC(C)C)NC(=O)[C@@H](C(C)C)NC(=O)[C@H](CCN)NC(=O)[C@H](CC(C)C)NC(=O)[C@@H](Cc2ccccc2)NC(=O)[C@H](CCN)NC1=O,MIC,Pseudomonas aeruginosa,8 mg/L
same,MIC,Bacillus subtilis,4 mg/L
same,MIC,Enterococcus faecalis,16 mg/L
same,fold change (FC),Escherichia coli [1],<=2
same,fold change (FC),Escherichia coli [2],<=2
same,fold change (FC),Escherichia coli [3],<=2
same,fold change (FC),Escherichia coli [4],<=2
same,fold change (FC),Staphylococcus aureus [5],<=2
same,fold change (FC),Staphylococcus aureus [6],<=2
same,fold change (FC),Staphylococcus aureus [7],<=2
same,Activity,Escherichia coli [8],Active
same,Activity,Staphylococcus aureus [9],Active
same,Activity,Escherichia coli [10],Active
same,Activity,Escherichia coli [11],Active
same,inhibition,Escherichia coli [12],Dose-Dependent Effect
same,inhibition,Escherichia coli [13],inactive
same,inhibition,Escherichia coli [14],Active
same,inhibition,Staphylococcus aureus [15],Active
same,inhibition,Staphylococcus aureus [16],Active
same,inhibition,Staphylococcus aureus [17],Active
same,Activity,Escherichia coli [18],inactive
same,Activity,Escherichia coli [19],Active
same,Activity,Escherichia coli [20],Active
same,Activity,Staphylococcus aureus [21],Active
same,Activity,Staphylococcus aureus [22],Active
same,Activity,Staphylococcus aureus [23],Active
same,fold change (FC),Escherichia coli [24],64
same,Activity,Staphylococcus aureus [25],Active
same,Activity,Escherichia coli [26],Dose-Dependent Effect
same,Activity,Escherichia coli [27],Active
same,Activity,Staphylococcus aureus [28],Tde
same,Activity,Staphylococcus aureus [29],Dose-Dependent Effect
same,Activity,Staphylococcus aureus [30],inactive
same,Activity,Staphylococcus aureus [31],inactive
same,Activity,Escherichia coli [32],inactive
same,Activity,Cell membrane [33],Active
same,Activity,Cell membrane [34],Active
same,Activity,Cell membrane [35],Active
same,Activity,Cell membrane [36],Active
same,Activity,Cell membrane [37],inactive
same,Activity,Staphylococcus aureus [38],Active
same,Activity,Staphylococcus aureus [39],Active
